# Laboratory results: patent publication US6384083B1, “USE OF ADAMANTANE AMINES OR STRUCTURALLY SIMILAR COMPOUNDS FOR COMBATING BORNA DISEASE VIRUS AND FOR THE PREVENTION AND TREATMENT OF AFFECTIVE DISEASES AND OTHER DISORDERS ASSOCIATED WITH BDV INFECTIONS IN HUMANS AND ANIMALS” (priority 1996, dated 2002)
# Where a name gives a salt, the structure may show the parent alone.
# How the values were obtained:
# [1] = test system: influenza B strains; conditions: cited from earlier work
# [2] = test system: influenza A strains; conditions: cited from earlier work
# [3] = test system: human oligodendroglia cells (OL cells); test: Cell growth of OL cells under amantadine sulfate; conditions: 1.2 μg/mL, whole period observed
# Procedure: (§3) On the other side, freshly infected OL cells were treated with the same drug dose for 24 hours and then for a further 6 days after the infection.
# [4] = test system: activated BDV infection / depression; test: Treatment of a BDV-infected patient with bipolar disease (severe depressive episode)
# [5] = test system: rabbit brain cells; test: Cell growth tolerance in the rabbit brain cell system; format: cell-based; conditions: relative to the cell system
# Procedure: (§1) Young rabbit brain cells were treated with amantadine sulfate and, in a comparison experiment, with meso-inositol. After this treatment, both samples were treated for 1 hour with a human Borna disease virus strain (100±10 ffu/mL with BDV-Hu-H1 (regarding this strain, refer also to L. Bode, et al., Mol. Psychiatry 1996, 1(3), 200-212)).
# (§2) The highest in vitro dose, which permits normal, unimpaired cell growth, is 1.2 μg/mL, relative to the cell system.
# [6] = test system: BDV-Hu-H1; test: Inhibition of BDV replication in human oligodendroglia (OL) cells; conditions: already infected OL cells, 1.2 μg/mL, 6 days
# Procedure: as §3
# [7] = test system: human Borna disease virus strain BDV-Hu-H1; test: Inhibition of BDV infection of young rabbit brain cells after one-hour pre-treatment; format: cell-based, Borna disease virus (human strain) in rabbit brain cells; conditions: one-hour pre-treatment before infection, 100±10 ffu/mL BDV-Hu-H1, read-out: concentration that inhibits the infection of rabbit brain cells with human BDV to the extent of 50%
# Procedure: as §1, §2
# [8] = cited from earlier work
smiles,measurement,setting,value
NC12CC3CC(CC(C3)C1)C2 [amantadine hydrochloride],sensitivity of the virus,[1],not sensitive
same,push back of virus production,[2],by a power of 10
NC12CC3CC(CC(C3)C1)C2 [amantadine sulfate],effect on cell growth,[3],practically not affected
same,Borna virus activity (protein expression in the blood leucocytes),[4]; after the 11th day of treatment and also 5 months later,could no longer be detected
same,course of depression under treatment,"[4]; from the 8th day to the 11th day, 50 to 200 mg daily",improved dramatically
same,day of treatment after which discharge from hospital was possible,[4]; patient,15 days
same,undesirable side effects,"[4]; patient, until now",no undesirable side effects
same,"highest in vitro dose which permits normal, unimpaired cell growth",[5],1.2 µg/mL
same,reduction of the number of infectious viruses (factor),[6],"more than 10,000"
same,IC50,[7],0.019 µg/mL
"NC12CC3CC(CC(C3)C1)C2 [amantadine, 1-adamantane amine]",half-lifetime,[8]; in vivo,approximately 15 hours
same,absorption after oral administration,[8]; oral,absorbed almost completely
same,depression-free time without hypomanic rebound effect,[4]; patient under therapy,5 months
"CC(N)C12CC3CC(CC(C3)C1)C2 (centres unmarked) [rimantadine, 1-adamantyl-(1-amino) ethane]",excretion / metabolism,[8]; in vivo,metabolized in the liver
